From BindingDB's records for doi:10.1021/acs.jmedchem.3c01371 (University of Santiago De Compostela, 2023)

Biological target: T1, Vitamin D3 receptor (Homo sapiens, UniProt P11473)
T1 sequence (P11473 whole entry): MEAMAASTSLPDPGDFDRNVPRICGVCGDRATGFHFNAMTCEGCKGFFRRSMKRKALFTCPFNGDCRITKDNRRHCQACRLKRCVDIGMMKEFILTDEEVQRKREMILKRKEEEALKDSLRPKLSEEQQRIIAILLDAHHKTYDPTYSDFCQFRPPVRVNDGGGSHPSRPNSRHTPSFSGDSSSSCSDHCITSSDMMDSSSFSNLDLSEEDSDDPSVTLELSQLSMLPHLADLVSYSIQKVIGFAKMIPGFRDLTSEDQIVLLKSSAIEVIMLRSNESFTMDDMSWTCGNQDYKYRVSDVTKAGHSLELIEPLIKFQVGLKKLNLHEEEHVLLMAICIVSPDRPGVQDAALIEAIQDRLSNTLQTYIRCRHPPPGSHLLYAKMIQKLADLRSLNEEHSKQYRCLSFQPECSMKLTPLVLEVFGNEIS
Test: Binding affinity to full length human VDR by Competitive binding assay

IC50: 4.6 nM
Compound: C=C1/C(=C\C=C(/C)c2cccc(CCC#CCC(O)(C(F)(F)F)C(F)(F)F)c2)C[C@@H](O)C[C@@H]1O
